Test results taken from US11091478B2 (Fochon Pharmaceuticals, Ltd., priority 2017, dated 2021).

Columns and labels:
DOHH2 cells = assay: Cell proliferation assay (MTS), DOHH2 cells, 120 h; format: cell-based; conditions: Homo sapiens, DOHH-2, 120 h
In short: (§1)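 Treatment lasts 72 h for RS4;11 and 120 h for DOHH2 cells seeded at 5000 per well in serum-containing RPMI-1640. A 2 h MTS step, halted with 10% SDS, precedes dual-wavelength absorbance reading and IC50 fitting.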

RS4;11 cells = assay: Cell proliferation assay (MTS), RS4;11 cells, 72 h; format: cell-based; conditions: Homo sapiens, RS4-11, 72 h
In short: as §1

| IC50 (RS4;11 cells) [nM] | Compound | IC50 (DOHH2 cells) [nM] |
| --- | --- | --- |
| 48 | CC1(C)CCC(CN2CCN(c3ccc(C(=O)NS(=O)(=O)c4cc5c(c([N+](=O)[O-])c4)N[C@@H](CNC(=O)OC4CCOCC4)CO5)c(Oc4cnc5[nH]ccc5c4)c3)CC2)=C(c2ccc(Cl)cc2)C1 [Example 2-61, tetrahydro-2H-pyran-4-yl (S)-((7-(N-(2-((1H-pyrrolo[2,3-b]pyridin-5-yl)oxy)-4-(4-((4′-chloro-5,5-dimethyl-3,4,5,6-tetrahydro-[1,1′-biphenyl]-2-yl)methyl)piperazin-1-yl)benzoyl)sulfamoyl)-5-nitro-3,4-dihydro-2H-benzo[b][1,4]oxazin-3-yl)methyl)carbamate] | 444 |
| 12 | COC(=O)NCC[C@@H]1COc2cc(S(=O)(=O)NC(=O)c3ccc(N4CCN(CC5=C(c6ccc(Cl)cc6)CC(C)(C)CC5)CC4)cc3Oc3cnc4[nH]ccc4c3)cc([N+](=O)[O-])c2N1 [Example 2-63, methyl (R)-(2-(7-(N-(2-((1H-pyrrolo[2,3-b]pyridin-5-yl)oxy)-4-(4-((4′-chloro-5,5-dimethyl-3,4,5,6-tetrahydro-[1,1′-biphenyl]-2-yl)methyl)piperazin-1-yl)benzoyl)sulfamoyl)-5-nitro-3,4-dihydro-2H-benzo[b][1,4]oxazin-3-yl)ethyl)carbamate] | 64 |
| 25 | CC1(C)CCC(CN2CCN(c3ccc(C(=O)NS(=O)(=O)c4cc5c(c([N+](=O)[O-])c4)N[C@H](CCS(C)(=O)=O)CO5)c(Oc4cnc5[nH]ccc5c4)c3)CC2)=C(c2ccc(Cl)cc2)C1 [Example 2-64, (R)-2-((1H-pyrrolo[2,3-b]pyriidn-5-yl)oxy)-4-(4-((4′-chloro-5,5-dimethyl-3,4,5,6-tetra-hydro-[1,1′-biphenyl]-2-yl)methyl)piperazin-1-yl)-N-((3-(2-(methylsulfonyl)ethyl)-5-nitro-3,4-dihydro-2H-benzo[b][1,4]oxazin-7-yl)sulfonyl)benzamide] | 70 |
| 20 | COCC[C@@H]1COc2cc(S(=O)(=O)NC(=O)c3ccc(N4CCN(CC5=C(c6ccc(Cl)cc6)CC(C)(C)CC5)CC4)cc3Oc3cnc4[nH]ccc4c3)cc([N+](=O)[O-])c2N1 [Example 2-65, (R)-2-((1H-pyrrolo[2,3-b]pyridin-5-yl)oxy)-4-(4-((4′-chloro-5,5-dimethyl-3,4,5,6-tetra-hydro-[1,1′-biphenyl]-2-yl)methyl)piperazin-1-yl)-N-((3-(2-methoxyethyl)-5-nitro-3,4-dihydro-2H-benzo[b][1,4]oxazin-7-yl)sulfonyl)benzamide] | 14 |
| 18 | CC1(C)CCC(CN2CCN(c3ccc(C(=O)NS(=O)(=O)c4cc5c(c([N+](=O)[O-])c4)N[C@@H](CNS(C)(=O)=O)CO5)c(Oc4cnc5[nH]ccc5c4)c3)CC2)=C(c2ccc(Cl)cc2)C1 [Example 2-66, (S)-2-((1H-pyrrolo[2,3-b]pyridin-5-yl)oxy)-4-(4-((4′-chloro-5,5-dimethyl-3,4,5,6-tetra-hydro-[1,1′-biphenyl]-2-yl)methyl)piperazin-1-yl)-N-((3-(methylsulfonamidomethyl)-5-nitro-3,4-dihydro-2H-benzo[b][1,4]oxazin-7-yl)sulfonyl)benzamide] | 13 |
| 26 | CC1(C)CCC(CN2CCN(c3ccc(C(=O)NS(=O)(=O)c4cc5c(c([N+](=O)[O-])c4)N[C@H](CCNS(C)(=O)=O)CO5)c(Oc4cnc5[nH]ccc5c4)c3)CC2)=C(c2ccc(Cl)cc2)C1 [Example 2-68, (R)-2-((1H-pyrrolo[2,3-b]pyridin-5-yl)oxy)-4-(4-((4′-chloro-5,5-dimethyl-3,4,5,6-tetra-hydro-[1,1′-biphenyl]-2-yl)methyl)piperazin-1-yl)-N-((3-(2-(methysulfonamido)ethyl)-5-nitro-3,4-dihydro-2H-benzo[b][1,4]oxa-zin-7-yl)sulfonyl)benzamide] | 83 |
| 5 | CC1(C)CCC(CN2CCN(c3ccc(C(=O)NS(=O)(=O)c4cc5c(c([N+](=O)[O-])c4)N[C@H](CN=S(C)(C)=O)CO5)c(Oc4cnc5[nH]ccc5c4)c3)CC2)=C(c2ccc(Cl)cc2)C1 [Example 2-70, (R)-2-((1H-pyrrolo[2,3-b]pyridin-5-yl)oxy)-4-(4-((4′-chloro-5,5-dimethyl-3,4,5,6-tetra-hydro-[1,1′-biphenyl]-2-yl)methyl)piperazin-1-yl)-N-((3-(((dimethyl(oxo)-λ^6-sulfanyl-idene)amino)methyl)-5-nitro-3,4-dihydro-2H-benzo[b][1,4]oxazin-7-yl)sulfonyl)benza-mide] | 28 |
| 58 | CC1(C)CCC(CN2CCN(c3ccc(C(=O)NS(=O)(=O)c4cc5c(c([N+](=O)[O-])c4)N[C@H](CN=S4(=O)CCCC4)CO5)c(Oc4cnc5[nH]ccc5c4)c3)CC2)=C(c2ccc(Cl)cc2)C1 [Example 2-71, (R)-2-((1H-pyrrolo[2,3-b]pyridin-5-yl)oxy)-4-(4-((4′-chloro-5,5-dimethyl-3,4,5,6-tetra-hydro-[1,1′-biphenyl]-2-yl)methyl)piperazin-1-yl)-N-((5-nitro-3-(((1-oxidotetrahydro-1λ^6-thiophen-1-ylidene)amino)methyl)-3,4-dihydro-2H-benzo[b][1,4]oxazin-7-yl)sulfo-nyl)benzamide] | 43 |

Second part, the compound before the results:

| Compound | IC50 (RS4;11 cells) [nM] | IC50 (DOHH2 cells) [nM] |
| --- | --- | --- |
| C[C@@H]1CN(CC[C@H]2COc3cc(S(=O)(=O)NC(=O)c4ccc(N5CCN(CC6=C(c7ccc(Cl)cc7)CC(C)(C)CC6)CC5)cc4Oc4cnc5[nH]ccc5c4)cc([N+](=O)[O-])c3N2)CCN1C1COC1 [Example 2-49, 2-((1H-pyrrolo[2,3-b]pyridin-5-yl)oxy)-4-(4-((4′-chloro-5,5-dimethyl-3,4,5,6-tetrahydro-[1,1′-biphenyl]-2-yl)methyl)piperazin-1-yl)-N-(((S)-3-(2-((R)-3-methyl-4-(oxetan-3-yl)piperazin-1-yl)ethyl)-5-nitro-3,4-dihydro-2H-benzo[b][1,4]oxazin-7-yl)sulfonyl) benzamide] | 16 | 12 |
| C[C@H]1CN(CC[C@H]2COc3cc(S(=O)(=O)NC(=O)c4ccc(N5CCN(CC6=C(c7ccc(Cl)cc7)CC(C)(C)CC6)CC5)cc4Oc4cnc5[nH]ccc5c4)cc([N+](=O)[O-])c3N2)CCN1C1COC1 [Example 2-50] | 9 | 22 |
| C[C@H]1CN(CC[C@H]2COc3cc(S(=O)(=O)NC(=O)c4ccc(N5CCN(CC6=C(c7ccc(Cl)cc7)CC(C)(C)CC6)CC5)cc4Oc4cnc5[nH]ccc5c4)cc([N+](=O)[O-])c3N2)CCO1 [Example 2-51] | 10 | 13 |
| C[C@@H]1CN(CC[C@H]2COc3cc(S(=O)(=O)NC(=O)c4ccc(N5CCN(CC6=C(c7ccc(Cl)cc7)CC(C)(C)CC6)CC5)cc4Oc4cnc5[nH]ccc5c4)cc([N+](=O)[O-])c3N2)CCO1 [Example 2-52, 2-((1H-pyrrolo[2,3-b]pyridin-5-yl)oxy)-4-(4-((4′-chloro-5,5-dimethyl-3,4,5,6-tetrahydro-[1,1′-biphenyl]-2-yl)methyl)piperazin-1-yl)-N-(((S)-3-(2-((R)-2-methylmorpholino)ethyl)-5-nitro-3,4-dihydro-2H-benzo[b][1,4]oxazin-7-yl)sulfonyl)benzamide] | 25 | 31 |
| CC(=O)NC[C@H]1COc2cc(S(=O)(=O)NC(=O)c3ccc(N4CCN(CC5=C(c6ccc(Cl)cc6)CC(C)(C)CC5)CC4)cc3Oc3cnc4[nH]ccc4c3)cc([N+](=O)[O-])c2N1 [Example 2-53, (S)-2-((1H-pyrrolo[2,3-b]pyridin-5-yl)oxy)-N-((3-(acetamidomethyl)-5-nitro-3,4-dihydro-2H-benzo[b][1,4]oxazin-7-yl)sulfonyl)-4-(4-((4′-chloro-5,5-dimethyl-3,4,5,6-tetra-hydro-[1,1′-biphenyl]-2-yl)methyl)piperazin-1-yl)benzamide] | 53 | 543 |
| CC1(C)CCC(CN2CCN(c3ccc(C(=O)NS(=O)(=O)c4cc5c(c([N+](=O)[O-])c4)N[C@@H](CNC(=O)C4CCOCC4)CO5)c(Oc4cnc5[nH]ccc5c4)c3)CC2)=C(c2ccc(Cl)cc2)C1 [Example 2-54, (S)-N-((7-(N-(2-((1H-pyrrolo[2,3-b]pyridin-5-yl)oxy)-4-(4-((4′-chloro-5,5-dimethyl-3,4,5,6-tetrahydro-[1,1′-biphenyl]-2-yl)methyl)piperazin-1-yl)benzoyl)sulfamoyl)-5-nitro-3,4-dihydro-2H-benzo[b][1,4]oxa-zin-3-yl)meth-yl)tetrahydro-2H-pyran-4-carboxamide] | 61 | 134 |
| CC1(C)CCC(CN2CCN(c3ccc(C(=O)NS(=O)(=O)c4cc5c(c([N+](=O)[O-])c4)N[C@@H](CCNC(=O)C4CCOCC4)CO5)c(Oc4cnc5[nH]ccc5c4)c3)CC2)=C(c2ccc(Cl)cc2)C1 [Example 2-56, (S)-N-(2-(7-(N-(2-((1H-pyrrolo[2,3-b]pyridin-5-yl)oxy)-4-(4-((4′-chloro-5,5-dimethyl-3,4,5,6-tetrahydro-[1,1′-biphenyl]-2-yl)meth-yl)piperazin-1-yl)benzoyl)sulfamoyl)-5-nitro-3,4-dihydro-2H-benzo[b][1,4]oxazin-3-yl)ethyl)tetrahydro-2H-pyran-4-carboxamide] | 41 | 571 |
| COC(=O)NC[C@H]1COc2cc(S(=O)(=O)NC(=O)c3ccc(N4CCN(CC5=C(c6ccc(Cl)cc6)CC(C)(C)CC5)CC4)cc3Oc3cnc4[nH]ccc4c3)cc([N+](=O)[O-])c2N1 [Example 2-60, methyl (S)-((7-(N-(2-((1H-pyrrolo[2,3-b]pyridin-5-yl)oxy)-4-(4-((4′-chloro-5,5-dimethyl-3,4,5,6-tetrahydro-[1,1′-biphenyl]-2-yl)methyl)piperazin-1-yl)benzoyl)sulfamoyl)-5-nitro-3,4-dihydro-2H-benzo[b][1,4]oxazin-3-yl)meth-yl)carbamate] | 1 | 82 |
